Data published in patent US11230538B2, “Herbicides” (SYNGENTA PARTICIPATIONS AG, priority 2016, dated 2022).

Assays:
Assay type in all cases: in vivo
[1] = tested on: Alopecurus myosuroides (ALOMY); test: B1 Pre-emergence herbicidal activity; parameters: key: 5=total damage to plant; 0=no damage to plant; conditions: pre-emergence application, rate 1000 g/ha, evaluated after 13 days
Outline: (§1)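 Sow in soil → 1 d glasshouse (24/16 °C, 14 h light, 65% RH) → spray pre-emergence (acetone/water 50:50, 0.5% Tween 20) → grow 13 d, water twice daily → score 0–5 (5 = total damage).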

[2] = tested on: Avena fatua (AVEFA); test: B1 Pre-emergence herbicidal activity; parameters: key: 5=total damage to plant; 0=no damage to plant; conditions: pre-emergence application, rate 1000 g/ha, evaluated after 13 days
Outline: as §1

[3] = tested on: Triticum aestivium (TRZAW); test: B1 Pre-emergence herbicidal activity; parameters: key: 5=total damage to plant; 0=no damage to plant; conditions: pre-emergence application, rate 1000 g/ha, evaluated after 13 days
Outline: as §1

[4] = tested on: Echinochloa crus-galli (ECHCG); test: B1 Pre-emergence herbicidal activity; parameters: key to Pre-emergence herbicidal activity, ECHCG (damage score 0-5): 5=total damage to plant; 0=no damage to plant; conditions: pre-emergence application, rate 1000 g/ha, evaluated after 13 days
Outline: as §1

[5] = tested on: Lolium perenne (LOLPE); test: B1 Pre-emergence herbicidal activity; parameters: key to Pre-emergence herbicidal activity, LOLPE (damage score 0-5): 5=total damage to plant; 0=no damage to plant; conditions: pre-emergence application, rate 1000 g/ha, evaluated after 13 days
Outline: as §1

[6] = tested on: Setaria fabenr (SETFA); test: B1 Pre-emergence herbicidal activity; parameters: key to Pre-emergence herbicidal activity, SETFA (damage score 0-5): 5=total damage to plant; 0=no damage to plant; conditions: pre-emergence application, rate 1000 g/ha, evaluated after 13 days
Outline: as §1

[7] = tested on: Avena fatua (AVEFA); test: B2 Post-emergence herbicidal activity; conditions: post-emergence application, rate 1000 g/ha, evaluated after 13 days
Outline: (§2)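 Test seeds are sown in standard soil and raised for 8 days under controlled glasshouse conditions (24/16 °C, 14 h light, 65% humidity). Foliage is then sprayed with compound formulated in 50:50 acetone/water plus 0.5% Tween 20, and plants are rated 0–5 for damage after 13 days.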

[8] = tested on: Echinochloa crus-galli (ECHCG); test: B2 Post-emergence herbicidal activity; parameters: key to Post-emergence herbicidal activity, ECHCG (damage score 0-5): 5=total damage to plant; 0=no damage to plant; conditions: post-emergence application, rate 1000 g/ha, evaluated after 13 days
Outline: as §2

[9] = tested on: Lolium perenne (LOLPE); test: B2 Post-emergence herbicidal activity; conditions: post-emergence application, rate 1000 g/ha, evaluated after 13 days
Outline: as §2

[10] = tested on: Alopecurus myosuroides (ALOMY); test: B2 Post-emergence herbicidal activity; parameters: key: 5=total damage to plant; 0=no damage to plant; conditions: post-emergence application, rate 1000 g/ha, evaluated after 13 days
Outline: as §2

[11] = tested on: Setaria fabenri (SETFA); test: B2 Post-emergence herbicidal activity; parameters: key: 5=total damage to plant; 0=no damage to plant; conditions: post-emergence application, rate 1000 g/ha, evaluated after 13 days
Outline: as §2

[12] = tested on: Triticum aestivium (TRZAW); test: B2 Post-emergence herbicidal activity; parameters: key: 5=total damage to plant; 0=no damage to plant; conditions: post-emergence application, rate 1000 g/ha, evaluated after 13 days
Outline: as §2

SMILES | Pre-emergence herbicidal activity, ALOMY (damage score 0-5) [1] | Pre-emergence herbicidal activity, AVEFA (damage score 0-5) [2] | Pre-emergence herbicidal activity, TRAZW (damage score 0-5) [3] | Pre-emergence herbicidal activity, ECHCG (damage score 0-5) [4] | Pre-emergence herbicidal activity, LOLPE (damage score 0-5) [5] | Pre-emergence herbicidal activity, SETFA (damage score 0-5) [6] | Post-emergence herbicidal activity, AVEFA (damage score 0-5) [7] | Post-emergence herbicidal activity, ECHCG (damage score 0-5) [8] | Post-emergence herbicidal activity, LOLPE (damage score 0-5) [9] | Post-emergence herbicidal activity, ALOMY (damage score 0-5) [10] | Post-emergence herbicidal activity, SETFA (damage score 0-5) [11] | Post-emergence herbicidal activity, TRAZW (damage score 0-5) [12]
CCC(=O)N(CCCN(CC)CC)c1ccc(-c2cncc(F)c2)nc1C(F)(F)F [Compound C95] | 0 | 1 | 0 | 3 | 1 | 4 | 2 | 5 | 2 | 1 | 5 | 1
O=C(Nc1ccc(-c2cncc(F)c2)nc1C(F)(F)F)c1cccs1 [Compound C47] | 1 | 2 | 0 | 5 | 1 | 4 | 4 | 5 | 3 | 1 | 5 | 0
CCC(=O)N(Cc1ccncc1)c1ccc(-c2cncc(F)c2)nc1C(F)(F)F [Compound C70] | 0 | 1 | 0 | 2 | 1 | 2 | 2 | 2 | 1 | 0 | 3 | 0
C=CCN(C(=O)C(C)C)c1ccc(-c2cncc(F)c2)nc1C(F)(F)F [Compound C16] | 0 | 1 | 0 | 4 | 2 | 5 | 4 | 5 | 3 | 1 | 5 | 1
CSCCN(C(=O)C(C)C)c1ccc(-c2cncc(F)c2)nc1C(F)(F)F [Compound C88] | 0 | 0 | 0 | 1 | 0 | 2 | 1 | 1 | 1 | 1 | 2 | 1
O=C(CCl)Nc1ccc(-c2cncc(F)c2)nc1C(F)(F)F [Compound C35] | 0 | 1 | 0 | 4 | 1 | 4 | 3 | 5 | 2 | 0 | 5 | 0
CCC(=O)N(C)c1ccc(-c2cncc(F)c2)nc1C(F)(F)F [Compound C15, N-[6-(5-fluoro-3-pyridyl)-2-(trifluoromethyl)-3-pyridyl]-N-methyl-propanamide] | 0 | 0 | 0 | 5 | 1 | 5 | 3 | 5 | 3 | 1 | 5 | 1
Cc1ccc(C(=O)Nc2ccc(-c3cncc(F)c3)nc2C(F)(F)F)cc1 [Compound C30] | 2 | 3 | 0 | 5 | 1 | 5 | 4 | 5 | 3 | 0 | 5 | 0
